# Legend:
# velvetleaf [1] = assay: Test A pre-/postemergence herbicide test; assay type: in vivo, Abutilon theophrasti
# Outline: (§1)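 Seeds sown in sandy loam received a preemergence directed soil spray of compound in non-phytotoxic solvent with surfactant; postemergence plants (2–10 cm, one- to two-leaf stage) were sprayed to runoff at the same time. After ~10 days in greenhouse, injury was rated visually versus untreated controls (0 = no effect, 100 = complete control).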
# giant foxtail [2] = assay: Test A pre-/postemergence herbicide test; assay type: in vivo, Setaria faberi
# Outline: as §1
# Surinam grass = assay: Test B pre-/postemergence herbicide test; assay type: in vivo, Urochloa decumbens; conditions: for Surinam Grass plant response rating: postemergence
# Outline: (§2)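 Formulation: non-phytotoxic solvent mix with surfactant. Timing: preemergence on seed and postemergence on 2–18 cm plants, applied concurrently. Readout after 13–15 d greenhouse: visual 0–100 control rating against controls.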
# [3] = test system: small flower umbrella sedge; assay: Test B flooded paddy test; assay type: in vivo, Cyperus difformis; conditions: 1000 g ai/ha, scale 0 to 100 (0 no effect, 100 complete control)
# Outline: (§3)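 Greenhouse test; postemergence application to plants at 1–4 leaves (2–18 cm); paddy species at 2 leaves; evaluated visually vs controls at 13–15 days; scale 0–100 (100 = complete control).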
# cocklebur = assay: Test B pre-/postemergence herbicide test; assay type: in vivo, Xanthium strumarium; conditions: for Cocklebur plant response rating: postemergence
# Outline: (§4)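 Greenhouse pot assay with simultaneous preemergence (treated seed) and postemergence (2–18 cm seedlings) applications of surfactant-containing, non-phytotoxic solvent formulations. Response scored visually 13–15 days later on a 0–100 scale, 100 meaning complete control.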
# rice [4] = assay: Test B pre-/postemergence herbicide test; assay type: in vivo, Oryza sativa; conditions: preemergence
# Outline: as §2
# wheat = assay: Test B postemergence herbicide test; assay type: in vivo, Triticum aestivum; design: key to Wheat plant response rating: 0 = no effect, 100 = complete control; conditions: postemergence
# Outline: (§5)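 Postemergence plants were sprayed with formulated test chemicals at 2 to 18 cm height (1- to 4-leaf stage); paddy species were grown to the 2-leaf stage. After 13 to 15 days in a greenhouse, injury was rated visually against untreated controls on a 0–100 scale (0 = no effect, 100 = complete control).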
# morningglory [5] = assay: Test B pre-/postemergence herbicide test; assay type: in vivo, Ipomoea coccinea; conditions: for Morningglory plant response rating: postemergence
# Outline: as §4
# barnyardgrass [6] = assay: Test A pre-/postemergence herbicide test; assay type: in vivo, Echinochloa crus-galli
# Outline: as §1
# lambsquarters = assay: Test B pre-/postemergence herbicide test; assay type: in vivo, Chenopodium album; conditions: for Lambsquarters plant response rating: postemergence
# Outline: as §2
# giant foxtail [7] = assay: Test B pre-/postemergence herbicide test; assay type: in vivo, Setaria faberi; conditions: for Foxtail, Giant plant response rating: postemergence
# Outline: as §2
# ducksalad = assay: Test B flooded paddy test; assay type: in vivo, Heteranthera limosa; conditions: 1000 g ai/ha, scale 0 to 100 (0 no effect, 100 complete control)
# Outline: as §3
# wild oat = assay: Test B postemergence herbicide test; assay type: in vivo, Avena fatua; conditions: postemergence
# Outline: as §5
# redroot pigweed = assay: Test A pre-/postemergence herbicide test; assay type: in vivo, Amaranthus retroflexus
# Outline: as §1
# large crabgrass [8] = assay: Test B pre-/postemergence herbicide test; assay type: in vivo, Digitaria sanguinalis; conditions: for Crabgrass, Large plant response rating: postemergence
# Outline: as §2
# large crabgrass [9] = assay: Test A pre-/postemergence herbicide test; assay type: in vivo, Digitaria sanguinalis
# Outline: as §1
# blackgrass = assay: Test B postemergence herbicide test; assay type: in vivo, Alopecurus myosuroides; conditions: postemergence
# Outline: as §3
# corn = assay: Test B pre-/postemergence herbicide test; assay type: in vivo, Zea mays; conditions: for Corn plant response rating: postemergence
# Outline: as §2
# morningglory [10] = assay: Test A pre-/postemergence herbicide test; assay type: in vivo, Ipomoea spp.
# Outline: as §1
# velvetleaf [11] = assay: Test B pre-/postemergence herbicide test; assay type: in vivo, Abutilon theophrasti; conditions: for Velvetleaf plant response rating: postemergence
# Outline: as §2
# barnyardgrass [12] = assay: Test B pre-/postemergence herbicide test; assay type: in vivo, Echinochloa crus-galli; conditions: for Barnyardgrass plant response rating: postemergence
# Outline: as §4
# rice [13] = assay: Test B flooded paddy test; assay type: in vivo, Oryza sativa; conditions: 1000 g ai/ha, scale 0 to 100 (0 no effect, 100 complete control)
# Outline: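 Scale 0–100: zero equals no visible effect, 100 complete control, judged by eye relative to controls. Timing: 13 to 15 days in greenhouse post-treatment. Growth stage at spraying: two leaves (paddy) or one to four leaves, 2–18 cm (postemergence).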
# barnyardgrass [14] = assay: Test B flooded paddy test; assay type: in vivo, Echinochloa crus-galli; conditions: 1000 g ai/ha, scale 0 to 100 (0 no effect, 100 complete control)
# Outline: as §3
# pigweed = assay: Test B pre-/postemergence herbicide test; assay type: in vivo, Amaranthus retroflexus; conditions: for Pigweed plant response rating: postemergence
# Outline: as §2
# [15] = Postemergence, 500 g ai/ha, 0 to 100 scale, 0 no effect, 100 complete control
# [16] = Postemergence, 2000 g ai/ha, 0 to 100 scale, 0 no effect, 100 complete control
# [17] = Preemergence, 2000 g ai/ha, visual rating, 0 to 100 scale (0 no effect, 100 complete control)
# [18] = preemergence, 500 g ai/ha, visual injury, 0 to 100 scale (0 no effect, 100 complete control)
# [19] = 125 g ai/ha, 0 is no effect, 100 is complete control, preemergence
# [20] = 125 g ai/ha, visual rating, scale 0 (no effect) to 100 (complete control)
# [21] = 500 g ai/ha, visual rating, 0 = no effect, 100 = complete control, preemergence
# [22] = 500 g ai/ha, scale 0 to 100, 0 is no effect, 100 is complete control
smiles,measurement,setting,value
C#CCNC(=O)c1cccc(NC(=O)c2cc(C(C)(C)C)nn2C)n1 [Compound 316],Velvetleaf plant response rating,velvetleaf [1]; [15],15
same,"Plant response rating, Velvetleaf",velvetleaf [1]; [16],20
same,Velvetleaf plant response rating,velvetleaf [1]; [17],15
same,Velvetleaf plant response rating,velvetleaf [1]; [18],5
same,"Foxtail, Giant plant response rating",giant foxtail [2]; [15],20
same,"Plant response rating, Foxtail, Giant",giant foxtail [2]; [16],30
same,"Foxtail, Giant plant response rating",giant foxtail [2]; [17],0
same,"Foxtail, Giant plant response rating",giant foxtail [2]; [18],0
same,"Plant response rating (0 to 100 scale), Surinam Grass",Surinam grass; [19],0
same,Surinam Grass plant response rating,Surinam grass; [20],10
same,"Plant response rating, Surinam Grass",Surinam grass; [21],0
same,Surinam Grass plant response rating,Surinam grass; [22],10
same,"Sedge, Umbrella plant response rating",[3],0
same,"Plant response rating (0 to 100 scale), Cocklebur",cocklebur; [19],0
same,Cocklebur plant response rating,cocklebur; [20],0
same,"Plant response rating, Cocklebur",cocklebur; [21],0
same,Cocklebur plant response rating,cocklebur; [22],20
same,"Plant response rating (0 to 100 scale), Rice","rice [4]; 125 g ai/ha, 0 is no effect, 100 is complete control",0
same,"Plant response rating, Rice","rice [4]; 500 g ai/ha, visual rating, 0 = no effect, 100 = complete control",0
same,Wheat plant response rating,wheat; [20],0
same,Wheat plant response rating,wheat; [22],0
same,"Plant response rating (0 to 100 scale), Morningglory",morningglory [5]; [19],0
same,Morningglory plant response rating,morningglory [5]; [20],10
same,"Plant response rating, Morningglory",morningglory [5]; [21],0
same,Morningglory plant response rating,morningglory [5]; [22],10
same,Barnyardgrass plant response rating,barnyardgrass [6]; [15],20
same,"Plant response rating, Barnyardgrass",barnyardgrass [6]; [16],45
same,Barnyardgrass plant response rating,barnyardgrass [6]; [17],10
same,Barnyardgrass plant response rating,barnyardgrass [6]; [18],0
same,"Plant response rating (0 to 100 scale), Lambsquarters",lambsquarters; [19],0
same,Lambsquarters plant response rating,lambsquarters; [20],40
same,"Plant response rating, Lambsquarters",lambsquarters; [21],60
same,Lambsquarters plant response rating,lambsquarters; [22],70
same,"Plant response rating (0 to 100 scale), Foxtail, Giant",giant foxtail [7]; [19],0
same,"Foxtail, Giant plant response rating",giant foxtail [7]; [20],0
same,"Plant response rating, Foxtail, Giant",giant foxtail [7]; [21],0
same,"Foxtail, Giant plant response rating",giant foxtail [7]; [22],20
same,Ducksalad plant response rating,ducksalad,0
same,"Oat, Wild plant response rating",wild oat; [20],0
same,"Oat, Wild plant response rating",wild oat; [22],20
same,Pigweed plant response rating,redroot pigweed; [15],25
same,"Plant response rating, Pigweed",redroot pigweed; [16],80
same,Pigweed plant response rating,redroot pigweed; [17],65
same,Pigweed plant response rating,redroot pigweed; [18],0
same,"Plant response rating (0 to 100 scale), Crabgrass, Large",large crabgrass [8]; [19],0
same,"Crabgrass, Large plant response rating",large crabgrass [8]; [20],10
same,"Plant response rating, Crabgrass, Large",large crabgrass [8]; [21],20
same,"Crabgrass, Large plant response rating",large crabgrass [8]; [22],10
same,"Crabgrass, Large plant response rating",large crabgrass [9]; [15],25
same,"Plant response rating, Crabgrass, Large",large crabgrass [9]; [16],45
same,"Crabgrass, Large plant response rating",large crabgrass [9]; [17],35
same,"Crabgrass, Large plant response rating",large crabgrass [9]; [18],10
same,Blackgrass plant response rating,blackgrass; [20],0
same,Blackgrass plant response rating,blackgrass; [22],0
same,"Plant response rating (0 to 100 scale), Corn",corn; [19],0
same,Corn plant response rating,corn; [20],10
same,"Plant response rating, Corn",corn; [21],0
same,Corn plant response rating,corn; [22],20
same,Morningglory plant response rating,morningglory [10]; [15],20
same,"Plant response rating, Morningglory",morningglory [10]; [16],30
same,Morningglory plant response rating,morningglory [10]; [17],0
same,Morningglory plant response rating,morningglory [10]; [18],0
same,"Plant response rating (0 to 100 scale), Velvetleaf",velvetleaf [11]; [19],0
same,Velvetleaf plant response rating,velvetleaf [11]; [20],0
same,"Plant response rating, Velvetleaf",velvetleaf [11]; [21],20
same,Velvetleaf plant response rating,velvetleaf [11]; [22],40
same,"Plant response rating (0 to 100 scale), Barnyardgrass",barnyardgrass [12]; [19],0
same,Barnyardgrass plant response rating,barnyardgrass [12]; [20],0
same,"Plant response rating, Barnyardgrass",barnyardgrass [12]; [21],0
same,Barnyardgrass plant response rating,barnyardgrass [12]; [22],40
same,Rice plant response rating,rice [13],0
same,Barnyardgrass plant response rating,barnyardgrass [14],0
same,"Plant response rating (0 to 100 scale), Pigweed",pigweed; [19],0
same,Pigweed plant response rating,pigweed; [20],10
same,"Plant response rating, Pigweed",pigweed; [21],90
same,Pigweed plant response rating,pigweed; [22],50
